Measured values: patent publication US20140274766A1, “METHODS OF USING F-SPONDIN AS A BIOMARKER FOR CARTILAGE DEGENERATIVE CONDITIONS AND BONE DISEASES” (priority 2009, published 2014)

Legend:
OA cartilage = assay: IL-1 effect on gene expression in OA cartilage explant cultures (QPCR); assay type: cell-based, human; settings: IL-1 1 ng/ml, 24-72 h, OA cartilage explants
Experimental: FIG. 7: IL-1 inhibited F-spondin and aggrecan expression in OA cartilage. OA cartilage was stimulated with IL-1 (1 ng/ml) for 24-72 h and total RNA was isolated and QPCR was performed.
Since IL-1 β appears to play a significant role in the pathogenesis of OA, its effects on F-spondin expression by QPCR in cartilage explants cultures was studied. Briefly, knee articular cartilage from patients undergoing knee replacement surgery was obtained and cut in 3-mm discs, and four to six discs (˜100 mg) were placed in organ culture in 2 ml of Ham's F-12 medium+0.1% human albumin (endo toxin fr) for 24-72 h, in the presence and absence of IL-1beta (1 ng/ml). At the end of the experiment the cartilage was frozen immediately in liquid nitrogen for RNA extraction.

chick chondrocytes = assay: Alkaline phosphatase (AP) activity in RA-stimulated chick chondrocyte cultures; assay type: cell-based; settings: RA 3 days
Experimental: FIG. 16. Inhibition of F-spondin decreases AP activity in RA stimulated cultures. Chick chondrocytes were treated with RA at 100 nm for 5 days with and without F-spondin antibodies and AP activity assessed. Antibodies with specificities to the spondin domain (medium grey) and TSR domain (black) inhibited AP activity compared to ctrl (noAb) (light grey). Note the greater inhibitory effect of the TSR domain antibody. * p=<0.05 versus no ab ctrl.
FIG. 17. The pro-maturation effect of F-spondin is not inhibited following neutralization of TGF-β activity by coculture with Latency Associated Peptide (LAP). AP activity was determined in chick chondrocyte cultures by ELISA following RA stimulation for 3 days. Cultures were either ctrl (RA only) or RA with either F-Spondin (1 ug/ml) or LAP (10 or 100 ng/ml), or RA with F-Spondin (1 ug/ml) and LAP (10 or 100 ng/ml) in combination.
FIG. 18. Blocking αvβ3 integrin inhibits the promaturation effect of F-spondin. Chondocyte cultures were transfected as previously and stimulated with RA for 3 days in the presence of IgG control, or αvβ3 blocking antibodies prior to assay for AP activity. Inhibition of αvβ3 led to a ˜50% suppression of F-spondin-induced AP activity but had no effect on baseline AP activity (vector ctrl).
FIGS. 23A, 23B and 23C. F-spondin regulation of chondrocyte maturation requires the TSR domain. (A) Schematic representation of F-spondin protein domains and plasmid constructs encoding either full length (FS1) or TSR domain truncated (FS6) cDNAs. (B) Relative AP activity of FS or pcDNA3 control transfected cultures after 5 days treatment. (C) Relative AP activity following inhibition of F-spondin protein domains. Upper sternal chondrocytes were stimulated with 0, 10, 35 or 100 nM retinoic acid (RA) for 5 days in culture. […]
We next determined that the pro-maturation effect of F-spondin is not inhibited following neutralization of TGF-β activity by coculture with Latency Associated Peptide (LAP) (R&D Systems, Cat No 246-LP/CF). […] AP activity was determined in chick chondrocyte cultures by ELISA following RA stimulation for 3 days. […]

[1] = test system: embryonic chick chondrocytes; assay: TGF-β treatment of embryonic chick chondrocytes, maturation marker expression (quantitative PCR); assay type: cell-based; settings: TGF-β 5 days
Experimental: FIGS. 24A and 24B. TGF-β enhances chondrocyte maturation and is required for F-spondin mediated induction of AP. (A) Relative gene expression of chondrocyte maturation markers following TGF-β treatment. Upper sternal chondrocytes were treated with TGF-β at the indicated doses for 5 days and mRNA levels determined by quantitative PCR. Values are expressed relative to untreated controls. (B) Effect of TGF-β depletion on F-spondin-mediated induction of AP. The conditioned media of FS1 or pcDNA3 transfected chondrocytes was harvested and immunodepleted of TGF-β or left untreated, and added to separate cultures in the presence of RA. […] Values represent mean expression levels of triplicate samples relative to untreated supernatants from vector ctrl cultures (=1).
We have previously reported that F-spondin can regulate the synthetic activity of articular chondrocytes via activation of latent TGF-β (Attur, M et al (2009) Faseb J 23:79-89). Since the TSR domain harbors conserved TGF-β binding motifs, we proposed that F-spondin-mediated enhancement of chondrocyte maturation similarly occurs via TGF-β. […] To determine whether […] is required for F-spondin induction of AP, we transfected chick chondrocytes with FS1 or control vector cDNA and harvested conditioned media supernatants after 48 h. Supernatants were then depleted of TGF-β by coincubation with anti-TGF-b antibody and added to separate cultures of chick chondrocytes in the presence of retinoic acid for 24 h.

Substance: IL-1: pro-inflammatory cytokine
- expression of F-spondin (OA cartilage): significantly inhibited
- expression of aggrecan (OA cartilage): significantly inhibited

Substance: LAP: Latency Associated Peptide (R&D Systems), neutralizes TGF-β activity
- effect on AP activity increase seen with F-spondin alone (chick chondrocytes; LAP 10-100 ng/ml with F-Spondin 1 ug/ml): did not significantly alter
- chondrocyte maturation (chick chondrocytes; LAP 10-100 ng/ml): accelerates maturation

Substance: TGF-β
- expression of AP [1]: dose dependent increases
- expression of F-spondin [1]: dose dependent increases
- expression of MMP-13 [1]: dose dependent increases
